Source: publication PMC5468338, “Novel Class IIa-Selective Histone Deacetylase Inhibitors Discovered Using an in Silico Virtual Screening Approach” (Scientific Reports, 2017)

Molecular target: HDAC4 (Homo sapiens, UniProt P56524)
Assay: HDAC fluorometric activity assay, HDAC4
Settings: tested at 40 μM, SAHA as reference
From the text: A fluorogenic based assay[54] was used to validate the 40 candidate compounds.

HDAC4, sequence (P56524 whole entry): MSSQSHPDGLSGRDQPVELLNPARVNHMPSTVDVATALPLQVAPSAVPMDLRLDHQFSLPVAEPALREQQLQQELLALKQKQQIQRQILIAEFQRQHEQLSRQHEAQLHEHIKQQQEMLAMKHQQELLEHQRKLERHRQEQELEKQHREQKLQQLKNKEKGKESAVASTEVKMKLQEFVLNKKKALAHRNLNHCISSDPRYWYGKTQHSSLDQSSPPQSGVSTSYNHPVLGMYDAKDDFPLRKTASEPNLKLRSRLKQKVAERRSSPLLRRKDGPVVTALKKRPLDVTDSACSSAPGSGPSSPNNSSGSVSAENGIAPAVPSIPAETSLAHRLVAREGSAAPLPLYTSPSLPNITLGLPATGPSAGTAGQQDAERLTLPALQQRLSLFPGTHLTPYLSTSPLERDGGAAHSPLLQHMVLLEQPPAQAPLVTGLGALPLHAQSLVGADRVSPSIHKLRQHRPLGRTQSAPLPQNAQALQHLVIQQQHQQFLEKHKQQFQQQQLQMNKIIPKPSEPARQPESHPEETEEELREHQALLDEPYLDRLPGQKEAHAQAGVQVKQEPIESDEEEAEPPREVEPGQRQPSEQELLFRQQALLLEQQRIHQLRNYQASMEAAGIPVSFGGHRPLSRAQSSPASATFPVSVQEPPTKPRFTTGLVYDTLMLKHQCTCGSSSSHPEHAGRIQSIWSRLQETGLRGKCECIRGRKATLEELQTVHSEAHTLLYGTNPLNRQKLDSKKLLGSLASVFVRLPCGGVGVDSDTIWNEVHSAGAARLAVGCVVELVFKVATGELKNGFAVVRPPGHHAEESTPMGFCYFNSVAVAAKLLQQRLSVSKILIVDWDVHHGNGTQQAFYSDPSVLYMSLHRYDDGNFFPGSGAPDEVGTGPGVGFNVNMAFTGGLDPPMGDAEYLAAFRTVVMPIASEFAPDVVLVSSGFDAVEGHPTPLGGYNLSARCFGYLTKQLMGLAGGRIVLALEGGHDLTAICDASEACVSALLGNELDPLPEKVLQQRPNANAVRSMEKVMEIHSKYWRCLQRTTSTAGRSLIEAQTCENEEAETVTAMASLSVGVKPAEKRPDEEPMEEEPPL

O=C(C=Cc1ccc(O)c(O)c1)c1ccc(O)c(O)c1O [Compound A93087]
HDAC4 inhibitory activity in initial screen compared to SAHA: significantly higher inhibitory activities
